Measurements: patent US20220000157A1, “MOUTH-COATING FEEL ENHANCER” (AJINOMOTO CO., INC., priority 2019, published 2022)

Tested on: panel of 3 experts
Assay: Sensory evaluation of strength of mouth-coating feel of mayonnaise, single compounds in ethanol (Experimental Example 14)
Assay type: in vivo
Conditions: for mouth-coating feel (in words): Table 20
Description: as a Positive Control, General Commercially Available mayonnaise (manufactured by Ajinomoto Co., Inc., trade name “Pure Select (registered trade mark) mayonnaise”, oil and fat content: 73%) added with ethanol (manufactured by Japan Alcohol Corporation) (0.001 wt %) was used.
As a negative control, commercially available mayonnaise (manufactured by Ajinomoto Co., Inc., trade name “Pure Select (registered trade mark) KOKUUMA (registered trade mark) 65% Calorie Cut”, oil and fat content: 23%) with a smaller oil and fat content as compared with positive control mayonnaise and added with ethanol (manufactured by Japan Alcohol Corporation) (0.001 wt %) was used.
Given amounts of β-caryophyllene, β-caryophyllene oxide, clovanediol, (1R,3Z,5R,9S)-4,11,11-trimethyl-8-methylenebicyclo[7.2.0]undec-3-en-5-ol, (1R,4R,5R,9S)-4,11,11-trimethyl-8-methylenebicyclo[7.2.0]undecane-4,5-diol, clovanediol-3-monoacetate, clovanediol diacetate, clovanediol-3-monoisovalerate, α-pinene, α-pinene oxide, limonene, limonene oxide, α-terpineol (clovanediol, (1R,3Z,5R,9S)-4,11,11-trimethyl-8-methylenebicyclo[7.2.0]undec-3-en-5-ol, (1R,4R,5R,9S)-4,11,11-trimethyl-8-methylenebicyclo[7.2.0]undecane-4,5-diol, clovanediol-3-monoacetate, clovanediol diacetate and clovanediol-3-monoisovalerate used were those obtained in the above-mentioned Synthetic Examples and others used were manufactured by Sigma-Aldrich) were dissolved in ethanol (manufactured by Japan Alcohol Corporation), the ethanol (0.001 wt %) was added to the commercially available mayonnaise used for preparation of the above-mentioned negative control, and the obtained mayonnaise was used as an evaluation sample. The amounts of β-caryophyllene, β-caryophyllene oxide, clovanediol, (1R,3Z,5R,9S)-4,11,11-trimethyl-8-methylenebicyclo[7.2.0]undec-3-en-5-ol, (1R,4R,5R,9S)-4,11,11-trimethyl-8-methylenebicyclo[7.2.0]undecane-4,5-diol, clovanediol-3-monoacetate, clovanediol diacetate, clovanediol-3-monoisovalerate, α-pinene, α-pinene oxide, limonene, limonene oxide, α-terpineol dissolved in ethanol were each adjusted to fall within the range of 0.01-1 ppm with respect to mayonnaise, as shown in the following Table 20.
For the evaluation of the strength of the mouth-coating feel, a panel of 3 experts ate each mayonnaise of positive control, negative control and evaluation sample, and graded the evaluation samples in 0.1 point increments in the range of 0.0 to 5.0 points, with the positive control being 5.0 points and the negative control being 0.0 point.

[1] = concentration 1 ppm with respect to mayonnaise
[2] = concentration 0.01 ppm with respect to mayonnaise
[3] = concentration 0.1 ppm with respect to mayonnaise

Compound	mouth-coating feel (in words)	strength of mouth-coating feel [1] [points]	strength of mouth-coating feel [2] [points]	strength of mouth-coating feel [3] [points]
CC1(C)C2CC3OC3(C)C1C2 (stereo not drawn) [α-pinene oxide]	enhanced	3.3		
C=C(C)[C@H]1CC=C(C)CC1 [limonene, reference compound]		0.0		
CC1=CCC2CC1C2(C)C (stereo not drawn) [α-pinene, reference compound]		0.6		
C=C1CC[C@@H](O)[C@](C)(O)CC[C@@H]2[C@@H]1CC2(C)C [(1R,4R,5R,9S)-4,11,11-trimethyl-8-methylenebicyclo[7.2.0]undecane-4,5-diol]	enhanced	3.3		
C=C1CC[C@H]2O[C@]2(C)CC[C@@H]2[C@@H]1CC2(C)C [β-caryophyllene oxide]	enhanced	3.6	1.5	2.6
CC(C)CC(=O)O[C@H]1CC(C)(C)[C@@H]2CC[C@]3(C)C[C@]12CC[C@H]3O [clovanediol-3-monoisovalerate]	enhanced	3.2		
CC1=CCC(C(C)(C)O)CC1 (stereo not drawn) [α-terpineol]	enhanced	2.0		
CC1(C)C[C@H](O)[C@]23CC[C@@H](O)[C@](C)(CC[C@@H]12)C3 [clovanediol]	enhanced	3.1		
CC(=O)O[C@H]1CC(C)(C)[C@@H]2CC[C@]3(C)C[C@]12CC[C@H]3OC(C)=O [clovanediol diacetate]	enhanced	3.2		
CC(=O)O[C@H]1CC(C)(C)[C@@H]2CC[C@]3(C)C[C@]12CC[C@H]3O [clovanediol-3-monoacetate]	enhanced	3.0		
C=C1CC[C@@H](O)/C(C)=C\C[C@@H]2[C@@H]1CC2(C)C [(1R,3Z,5R,9S)-4,11,11-trimethyl-8-methylenebicyclo[7.2.0]undec-3-en-5-ol]	enhanced	3.0		
C=C1CC/C=C(\C)CC[C@@H]2[C@@H]1CC2(C)C [β-caryophyllene, reference compound]		0.1	0.0	0.0
C=C(C)C1CCC2(C)OC2C1 (stereo not drawn) [limonene oxide]	enhanced	2.8		
